The test system of experiment [1] is HL-7002 cells. As to the kind of experiment: cell viability (MTS) assay, fetal hepatocytes HL-7002. Type of experiment: cell-based, human. The following applies: HL-7002 immortalized fetal hepatic cells, 0.01 to 300 μM, OD490, read-out: IC50 to reduce HL-7002 cell number. Here is the method:
(§1) The index of cell growth repression ratio was obtained by comparing the OD490 data of treatment group to the negative control. The drug response rate IC50 was calculated with the SPSS 16.0 system.
(§2) Cell culture: Prostate cancer cell lines LNCaP and PC-3 were purchased from ATCC (Manassas, Va.). The fetal hepatocytes HL-7002 and human embryonic kidney cells […] were purchased from ATCC. The cells were cultured in RPMI+5% Fetal Bovine Serum (FBS).
(§3) The cells treated with the solvents were used as the negative control, and cisplatin and docetaxel were used as the positive controls. The cells were monitored daily, and the cell viability was evaluated with the Promega CellTiter 96 AQueous One Solution Cell Proliferation Assay (Promega, Madison, Wis., USA) according to the manufacture manuals. The cell viability was monitored at OD490 reading in a bio-spectrometer (Perkin Elmer, Walthan, Mass., USA).
(§4) Data analysis: The OD490 reading data were collected hourly from 1 h to 4 h after the addition of lysis buffer. The index of cell growth repression ratio was obtained by comparing the OD490 data of treatment to the negative control. The drug response rate IC50 was calculated with the SPSS 16.0.
The index of cell growth repression ratio was obtained by comparing the OD490 data of treatment group to the negative control. The drug response rate IC50 was calculated with the SPSS 16.0 system. […]

Experiment [2] has as its system HCT-116 cells. Briefly: cell viability (MTS) assay, HCT-116 colorectal cancer cells. Type of experiment: cell-based. The following applies: drugs 0.01 to 300 μM, OD490, read-out: IC50 to reduce HCT-116 cell number. On the procedure: HCT-116 cells are a colorectal cancer cell line. […] The index of cell growth repression ratio was obtained by comparing the OD490 data of treatment group to the negative control. The drug response rate IC50 was calculated with the SPSS 16.0 system.
(§5) Cell culture: Colorectal cancer cell lines HCT-116 and HT29 were purchased from ATCC (Manassas, Va.). The fetal hepatocytes HL-7002 and human embryonic kidney cells […] were purchased from ATCC. The cells were cultured in RPMI+5% Fetal Bovine Serum (FBS).
as §3, §4

The subject of experiment [3] is HT29 cells. As to the kind of experiment: cell viability (MTS) assay, HT29 colorectal cancer cells. Type of experiment: cell-based. As to conditions: OD490, read-out: IC50 to reduce HT29 cell number. Here is the method:
HT29 cells are a colorectal cancer cell line. […] The index of cell growth repression ratio was obtained by comparing the OD490 data of treatment group to the negative control. The drug response rate IC50 was calculated with the SPSS 16.0 system.
as §5, §3, §4

Experiment [4] has as its system HEK293 cells. Briefly: cell viability (MTS) assay, embryonic kidney cell line HEK293. Type of experiment: cell-based, human. As to conditions: HEK293 immortalized fetal kidney cells, 0.01 to 300 μM, OD490, read-out: IC50 to reduce HEK293 cells. Here is the method: HEK293 cells are an immortalized human fetal kidney cell line. […] The index of cell growth repression ratio was obtained by comparing the OD490 data of treatment group to the negative control. The drug response rate IC50 was calculated with the SPSS 16.0 system.
as §2, §3, §4, §1, §5

Experiment [5] concerns LNCaP cells. As to the kind of experiment: cell viability (MTS) assay, LNCaP prostate cancer cells. Type of experiment: cell-based. As to conditions: Homo sapiens, drugs 0.01 to 300 μM, OD490, read-out: IC50 to reduce LNCaP cell number. On the procedure: (§6) The index of cell growth repression ratio was obtained by comparing the OD490 data of treatment group to the negative control. The drug response rate IC50 was calculated with the SPSS 16.0 system. Cell culture: Prostate cancer cell lines LNCaP and PC-3 were purchased from ATCC (Manassas, Va.). The fetal hepatocytes HL-7002 and human embryonic kidney cells […] were purchased from ATCC. The cells were cultured in RPMI+5% Fetal Bovine Serum (FBS). […] The cells treated with the solvents were used as the negative control, and cisplatin and docetaxel were used as the positive controls. The cells were monitored daily, and the cell viability was evaluated with the Promega CellTiter 96 AQueous One Solution Cell Proliferation Assay (Promega, Madison, Wis., USA) according to the manufacture manuals. The cell viability was monitored at OD490 reading in a bio-spectrometer (Perkin Elmer, Walthan, Mass., USA). Data analysis: The OD490 reading data were collected hourly from 1 h to 4 h after the addition of lysis buffer. The index of cell growth repression ratio was obtained by comparing the OD490 data of treatment to the negative control. The drug response rate IC50 was calculated with the SPSS 16.0.

Experiment [6] deals with PC-3 cells. Briefly: cell viability (MTS) assay, PC-3 prostate cancer cells. Type of experiment: cell-based. The following applies: Homo sapiens, drugs 0.01 to 300 μM, OD490, read-out: IC50 to reduce PC-3 cell number. On the procedure: as §6, with “Cell culture: Prostate cancer cell lines LNCaP and PC-3 were purchased from ATCC (Manassas, Va.).” left out

Where two headings read alike, the source gives them in different places.

By IC50 is commonly meant the concentration that inhibits the measured activity by half. `O=C1[O][Pt]2([NH][C@@H]3CCCC[C@H]3[NH]2)[O]C1=O` [oxaliplatin]: the IC50 in experiment [1] came to 2.44 µM; in experiment [2] it was 8.15 µM; in experiment [3] (drugs 0.01 to 300 μM) it was 30 µM; in experiment [4] it was 10.1 µM.
On to `O=c1[nH]cc(F)c(=O)[nH]1` [5-FU, fluorouracil], for which the IC50 was determined as 4.42 µM in experiment [1] (Homo sapiens, Hepatocyte); 4.21 µM in experiment [2] (Homo sapiens); 7.56 µM in experiment [3] (Homo sapiens, HT-29, drugs 0.01 to 300 μM); 3.74 µM in experiment [4] (Homo sapiens).
Regarding `CC(=O)O[C@@]12CO[C@@H]1C[C@H](O)[C@@]1(C)C(=O)[C@H](O)C3=C(C)[C@@H](OC(=O)[C@H](O)[C@@H](NC(=O)OC(C)(C)C)c4ccccc4)C[C@@](O)([C@@H](OC(=O)c4ccccc4)[C@H]21)C3(C)C` [docetaxel], the IC50 in experiment [5] worked out at 4.03 µM; in experiment [4] (Homo sapiens), 1.74 µM; in experiment [6] it was 49.9 µM.

Source of the values: US10421770B2, “Pharmaceutical composition of carboplatin based co-crystals and use thereof” (SYN-NAT PRODUCTS ENTERPRISE LLC, priority 2015, dated 2019).
